Laboratory results from US20120230918A1, “NON-INVASIVE IN VIVO OPTICAL IMAGING METHOD” (Hoffmann-La-Roche Inc., priority 2009, published 2012).

Columns and labels:
[1] = after i.v. injection; cited from earlier work
[2] = Fluorescence signal intensity of ICG in eye, liver, kidney, brain and tumor region of a mouse with s.c. Calu3 tumor; conditions: second experiment, ICG i.v., BALB/c nude mouse with s.c. Calu3 tumor
Description: (§1) We first evaluated the technical feasibility of this new approach by using indocyanine green (ICG) a fluorescent dye. […] Female BALB/c nude mice received inhalation anaesthesia, were placed in the imaging chamber (FIG. 3) and injected i.v. with a dose of 20 μg/200 μl. The fluorescence signal intensity measurements in the eye was started 10 sec before i.v. injection of ICG and images were recorded every second with an acquisition time of 500 ms over a period of 8 minutes. ICG was excited with light at a wavelength range from 671 to 705 nm and the emission was detected at 820 nm. […] In a second experiment, a BALB/c nude mouse with a s.c. growing tumor (Calu3) was injected with ICG i.v. and signal intensity in eye, liver, kidney, brain and the tumor region was monitored.
(§2) The fluorescence signal intensity in Calu3 xenograft was measured as described before. ROI were identified for the eye, liver, kidney, brain and s.c. growing tumor using the anatomical pictures of the subjects. The fluorescence intensity from these regions were then calculated and plotted as a function of time.
(§3) In a second experiment, a BALB/c nude mouse with a s.c. growing tumor (Calu3) was injected with ICG i.v. and signal intensity in eye, liver, kidney, brain and the tumor region was monitored.

[3] = injected i.v. into mice; cited from earlier work
[4] = in vivo; conditions: female, BALB/c nude, mouse, eye region (fluorescence signal), iv, 20 μg/200 μl
Description: Female BALB/c nude mice received inhalation anaesthesia, were placed in the imaging chamber (FIG. 3) and injected i.v. with a dose of 20 μg/200 μl. The fluorescence signal intensity measurements in the eye was started 10 sec before i.v. injection of ICG and images were recorded every second with an acquisition time of 500 ms over a period of 8 minutes. ICG was excited with light at a wavelength range from 671 to 705 nm and the emission was detected at 820 nm.
Female BALB/c nude received inhalation anesthesia, were placed into the imaging chamber and injected i.v. with ICG (20 μg/200 μl). The fluorescence signal intensity was measured starting 10 sec before injection of ICG. Images in the region of interest were recorded every second with an acquisition time of 500 ms over a period of 8 min. ICG was excited with light at a wavelength range from 671 to 705 nm and the emission was detected at 820 nm. The fluorescence intensity from these regions were then calculated and plotted as a function of time.
Female BALB/c nude mice received inhalation anesthesia, were placed in the imaging chamber (FIG. 3) and injected i.v. with a dose of 20 μg/200 μl.

[5] = in vivo; conditions: BALB/c nude, mouse, eye (fluorescence signal intensity in the eye region), iv, 20 μg/200 μl
Description: as §1, §2, §3

[6] = system: BMP-2 induced upregulation of Hepcidin mRNA in HepG2 cells; test: Block of BMP-2 induced upregulation of Hepcidin mRNA in HepG2 cells; format: cell-based; conditions: in vitro

## NCCC(O)(P(=O)(O)O)P(=O)(O)O [Pamidronate]
[1]
  serum half life: 20 to 30 min

## CC1(C)C(/C=C/C=C/C=C/C=C2\N(CCCCS(=O)(=O)O)c3ccc4ccccc4c3C2(C)C)=[N+](CCCCS(=O)(=O)[O-])c2ccc3ccccc3c21 [ICG, Indocyanine green]
[2]
  accumulation in the liver, time of reaching a plateau: 3.8 min
[3]
  organ of accumulation: accumulates in the liver
  time in which cleared from the circulation: 2 to 4 min
[4]
  Tmax: 2 min
  half-life: 6.6 min
[5]
  Tmax: 1.2 min
  half-life: 5.4 min

B1: non-labeled Hemojuvelin: non-labeled Hemojuvelin (protein, UniProt Q6ZVN8 36-400, looked up)
Hemojuvelin: QCKILRCNAEYVSSTLSLRGGGSSGALRGGGGGGRGGGVGSGGLCRALRSYALCTRRTARTCRGDLAFHSAVHGIEDLMIQHNCSRQGPTAPPPPRGPALPGAGSGLPAPDPCDYEGRFSRLHGRPPGFLHCASFGDPHVRSFHHHFHTCRVQGAWPLLDNDFLFVQATSSPMALGANATATRKLTIIFKNMQECIDQKVYQAEVDNLPVAFEDGSINGGDRPGGSSLSIQTANPGNHVEIQAAYIGTTIIIRQTAGQLSFSIKVAEDVAMAFSAEQDLQLCVGGCPPSQRLSRSERNRRGAITIDTARRLCKEGLPVEDAYFHSCVFDVLISGDPNFTVAAQAALEDARAFLPDLEKLHLFPSD
[6]
  ability to block BMP-2 induced upregulation of Hepcidin mRNA, non-labeled versus Cy5-labeled: did not differ

B2: Cy5-labeled Hemojuvelin: Hemojuvelin labeled with Cy5 (conjugate, UniProt Q6ZVN8 36-400, looked up)
Hemojuvelin: B1 Hemojuvelin
modifications: Cy5 label
[6]
  ability to block BMP-2 induced upregulation of Hepcidin mRNA, non-labeled versus Cy5-labeled: did not differ
